Experiment [1] relates to H22. As to the kind of experiment: Antitumor activity against mouse H22 cells implanted in Kunming mouse assessed as tumor weight at 15 mg/kg, po administered once daily for 7 days (reference value: 0.66 +/- 0.18 g). The class given is functional.
For experiment [2], the system named is H22. The experiment is described as follows: Antitumor activity against mouse H22 cells implanted in Kunming mouse assessed as tumor growth inhibition at 15 mg/kg, po administered once daily for 7 days relative to control. The class given is functional. The following applies: 168 h, read-out: TGI.
In experiment [3] the test system is SMMC-7721. The experiment is described as follows: Induction of apoptosis in human SMMC7721 cells assessed as late apoptotic cells at half IC50 after 24 hrs by annexin V/PI-staining based flow cytometry (reference value: 0.5 %). It counts as functional.
Experiment [4] concerns SMMC-7721. The experiment is described as follows: Cell cycle arrest in human SMMC7721 cells assessed as sub-G1 phase accumulation at half IC50 after 24 hrs by propidium iodide-staining based flow cytometry (reference value: 0.8 %). The class given is functional. In general terms: Flow cytometry measures light scatter and fluorescence of single cells or particles in a stream.

In experiment [5] the test system is SMMC-7721. The experiment is described as follows: Induction of apoptosis in human SMMC7721 cells after 24 hrs by annexin V/PI-staining based flow cytometry. The class given is functional, cell-based.
The subject of experiment [6] is SMMC-7721. The experiment is described as follows: Induction of apoptosis in human SMMC7721 cells assessed as increase in Bax levels after 24 hrs by Western blot method. It counts as functional, cell-based. On the technique in general: In western blotting, separated proteins are transferred to a membrane and probed.
For experiment [7], the system named is SMMC-7721. As to the kind of experiment: Induction of apoptosis in human SMMC7721 cells assessed as necrotic cells at IC50 after 24 hrs by annexin V/PI-staining based flow cytometry (Rvb =1.6 %). It counts as functional.
Experiment [8] deals with SMMC-7721. The experiment is described as follows: Cell cycle arrest in human SMMC7721 cells assessed as G2/M phase accumulation at IC50 after 24 hrs by propidium iodide staining based flow cytometry (reference value: 28.8 %). The class given is functional.
Experiment [9] has as its system SMMC-7721. The experiment is described as follows: Cell cycle arrest in human SMMC7721 cells assessed as G2/M phase accumulation at half IC50 after 24 hrs by propidium iodide-staining based flow cytometry (reference value: 28.8 %). It counts as functional.
Experiment [10] relates to SMMC-7721. The experiment is described as follows: Cell cycle arrest in human SMMC7721 cells assessed as sub-G1 phase accumulation at IC50 after 24 hrs by propidium iodide staining based flow cytometry (reference value: 0.8 %). It counts as functional.
In experiment [11] the test system is SMMC-7721. As to the kind of experiment: Induction of apoptosis in human SMMC7721 cells assessed as early apoptotic cells at IC50 after 24 hrs by annexin V/PI-staining based flow cytometry (reference value: 0.6 %). It counts as functional.
Experiment [12] relates to SMMC-7721. The experiment is described as follows: Induction of apoptosis in human SMMC7721 cells assessed as decrease in Bcl2 levels after 24 hrs by Western blot method. It counts as functional, cell-based.
In experiment [13] the test system is SMMC-7721. The experiment is described as follows: Cell cycle arrest in human SMMC7721 cells assessed as S phase accumulation at half IC50 after 24 hrs by propidium iodide-staining based flow cytometry (reference value: 12.7 %). It counts as functional.
The subject of experiment [14] is SMMC-7721. As to the kind of experiment: Cell cycle arrest in human SMMC7721 cells assessed as G1 phase accumulation at half IC50 after 24 hrs by propidium iodide-staining based flow cytometry (reference value: 57.6 %). The class given is functional.
The test system of experiment [15] is SMMC-7721. As to the kind of experiment: Induction of apoptosis in human SMMC7721 cells assessed as increase in cleaved caspase 9 levels after 24 hrs by Western blot method. It counts as functional, cell-based.
Experiment [16] concerns SMMC-7721. The experiment is described as follows: Cell cycle arrest in human SMMC7721 cells assessed as G1 phase accumulation at IC50 after 24 hrs by propidium iodide staining based flow cytometry (reference value: 57.6 %). The class given is functional.
Experiment [17] relates to SMMC-7721. The experiment is described as follows: Induction of apoptosis in human SMMC7721 cells assessed as early apoptotic cells at half IC50 after 24 hrs by annexin V/PI-staining based flow cytometry (reference value: 0.6 %). It counts as functional.
Experiment [18] relates to SMMC-7721. As to the kind of experiment: Induction of apoptosis in human SMMC7721 cells assessed as live cells at IC50 after 24 hrs by annexin V/PI-staining based flow cytometry (reference value: 97.3 %). It counts as functional.
Experiment [19] deals with SMMC-7721. The experiment is described as follows: Induction of apoptosis in human SMMC7721 cells assessed as broken nuclei after 24 hrs by Hoechst 33258 staining based fluorescent microscopic method. The class given is functional, cell-based.
For experiment [20], the system named is SMMC-7721. The experiment is described as follows: Induction of apoptosis in human SMMC7721 cells assessed as necrotic cells at half IC50 after 24 hrs by annexin V/PI-staining based flow cytometry (Rvb =1.6 %). The class given is functional.
The subject of experiment [21] is SMMC-7721. As to the kind of experiment: Induction of apoptosis in human SMMC7721 cells assessed as live cells at half IC50 after 24 hrs by annexin V/PI-staining based flow cytometry (reference value: 97.3 %). The class given is functional.
The test system of experiment [22] is SMMC-7721. As to the kind of experiment: Induction of apoptosis in human SMMC7721 cells assessed as increase in cleaved caspase 8 levels after 24 hrs by Western blot method. It counts as functional, cell-based.
For experiment [23], the system named is SMMC-7721. As to the kind of experiment: Induction of apoptosis in human SMMC7721 cells assessed as condensed nuclei after 24 hrs by Hoechst 33258 staining based fluorescent microscopic method. It counts as functional, cell-based.
The subject of experiment [24] is SMMC-7721. As to the kind of experiment: Cell cycle arrest in human SMMC7721 cells assessed as S phase accumulation at IC50 after 24 hrs by propidium iodide staining based flow cytometry (reference value: 12.7 %). It counts as functional.
The subject of experiment [25] is SMMC-7721. As to the kind of experiment: Induction of apoptosis in human SMMC7721 cells assessed as increase in cleaved caspase 3 levels after 24 hrs by Western blot method. It counts as functional, cell-based.
For experiment [26], the system named is SMMC-7721. As to the kind of experiment: Induction of apoptosis in human SMMC7721 cells assessed as late apoptotic cells at IC50 after 24 hrs by annexin V/PI-staining based flow cytometry (reference value: 0.5 %). It counts as functional.
Experiment [27] has as its system SMMC-7721. The experiment is described as follows: Cytotoxicity against human SMMC7721 cells after 48 hrs by MTT assay. The class given is functional, cell-based. The following applies: SMMC-7721, 48 h. On the technique in general: Formazan colour is commonly taken as a measure of viable cells.

From ChEMBL document CHEMBL4014302, “Studies on anti-hepatoma activity of Annona squamosa L. pericarp extract” (Bioorg Med Chem Lett, 2017) come the findings set out here.

`O=c1[nH]cc(F)c(=O)[nH]1` [FLUOROURACIL]: the Activity in the experiment on H22 [1] is listed as 0.36 g. The inhibition in vivo at 15 mg/kg in the experiment with H22 [2] stood at 44.7%.

Consider `C=C1C[C@@]23CC[C@H]4[C@@](C)(CCC[C@@]4(C)C(=O)O)[C@@H]2CC[C@H]1C3`, for which the Activity with SMMC-7721 [3] is 5.1%; in the experiment with SMMC-7721 [4] it was 1%; with SMMC-7721 [5], “Dose-dependent effect”; in the experiment on SMMC-7721 [6] it was “Dose-dependent effect”; with SMMC-7721 [7], 2.6%; in the experiment on SMMC-7721 [8] it was 18%. Moreover, the Activity in the experiment on SMMC-7721 [9] was 26.9%; in the experiment with SMMC-7721 [10], 1.2%; in the experiment with SMMC-7721 [11], 12.9%; in the experiment with SMMC-7721 [12] it was “Dose-dependent effect”; in the experiment with SMMC-7721 [13], 11.2%; with SMMC-7721 [14] it was 61%. Moreover, the Activity entry was “Dose-dependent effect” in the experiment with SMMC-7721 [15]; 73.3% in the experiment on SMMC-7721 [16]; 10.7% with SMMC-7721 [17]; 79.3% with SMMC-7721 [18]; “Dose-dependent effect” in the experiment on SMMC-7721 [19]; 3.8% in the experiment on SMMC-7721 [20]. The Activity was 80.4% in the experiment on SMMC-7721 [21]; “Dose-dependent effect” in the experiment with SMMC-7721 [22]; “Dose-dependent effect” in the experiment on SMMC-7721 [23]; 7.7% in the experiment with SMMC-7721 [24]; “Dose-dependent effect” with SMMC-7721 [25]; 5.2% in the experiment with SMMC-7721 [26]. The IC50 with SMMC-7721 [27] was 67.4 µM.

`CC1=C[C@@]23CC[C@H]4[C@@](C)(CCC[C@@]4(C)C(=O)O)[C@@H]2CC[C@H]1C3`: the Activity in the experiment with SMMC-7721 [3] is 3.5%; in the experiment on SMMC-7721 [4] it was 1.1%; with SMMC-7721 [5], “Dose-dependent effect”; in the experiment with SMMC-7721 [7], 6.4%; in the experiment with SMMC-7721 [8], 26.9%; in the experiment on SMMC-7721 [9], 25.5%. For the same molecule, the Activity came to 0.3% in the experiment with SMMC-7721 [10]; 10.8% with SMMC-7721 [11]; 14.8% in the experiment on SMMC-7721 [13]; 58.5% with SMMC-7721 [14]; 60.9% in the experiment with SMMC-7721 [16]; 7.8% in the experiment on SMMC-7721 [17]. The Activity was 75.4% in the experiment on SMMC-7721 [18]; “Dose-dependent effect” in the experiment with SMMC-7721 [19]; 3.4% in the experiment on SMMC-7721 [20]; 85.2% with SMMC-7721 [21]; “Dose-dependent effect” in the experiment on SMMC-7721 [23]; 11% with SMMC-7721 [24]. Further, the Activity in the experiment with SMMC-7721 [26] was found to be 7.4%. The same molecule gave an IC50 with SMMC-7721 [27] of 45.7 µM.

As a reminder, the IC50 is the concentration that gives 50% inhibition.
